Like-named read-outs stand apart in the source and are kept apart here.
Experiments:
[1] = Transmission of D-Mannitol and L-Proline from mother to pup, osmotic pump in pregnant wild type mice, LC-MS/MS levels; settings: osmotic pump 200 μl, 0.3M alone or 0.2M each combined, 28 days, pregnant wild type mice (C57B1/6)
Procedure: The sample is further precipitated using acetonitrile and centrifuged.
(§1) The LLOQ (Lowest Limit of Quantitation) for proline is typically 0.250 μg/ml. […] The sample is further precipitated using acetonitrile and centrifuged. An aliquot of the supernatant is evaporated to dryness under a steam of nitrogen at 60° C., Milli-Q water is added and the preparation is vortexed. Methanol is subsequently added to the preparation and vortexed. Usually Milli-Q water and methanol are added in a ratio of 1/5. The preparation is centrifuged for 2 minutes at a speed of 4000 g or more. The obtained preparation is injected. The apparatus used for LC-MS/MS is API4000 LC-MS/MS.

[2] = 0.2M L-Proline via drinking water, one week, wt animals
Procedure: as §1
L-Proline was also measured in the blood and urine of four wt animals that received 0.2M L-Proline via their drinking water. As a control, four wt animals received just drinking water. The duration of this treatment was one week, after which one blood sample and one urine sample was taken.

[3] = In vitro AOC (anti-oxidant capacity); settings: effective concentrations between 0.1 μg/ml and 10 μg/ml as measured in the serum
Text: The compositions of the invention may be of any type. […] Mannitol and proline in particular have well documented anti-oxidant properties.

[4] = test system: Csb^G744ter/G744ter/Xpa^null/null double mutant mice; format: in vivo, mouse; settings: for Clearance from the tissues and bloodstream of treated subjects: higher single dose administrations; for Effectiveness of higher single dose administrations: versus low constant source; for Positive results as with mannitol and/or proline: tested under similar conditions
Text: Additionally these animals have an enhanced photoreceptor cell loss. The accumulation of oxidative DNA damage before and immediately after birth presumably negatively influences transcription and causes the premature ageing phenotype.
In order to investigate the effect of radical scavengers on the CSB/XPA double knockout mice, the effect of several compounds and compositions was monitored by the frequency of CSB/XPA DKO mice (closer to the expected mendelian frequency of 25%), an extended life-span (longer than the average three weeks for untreated DKO mice) and a delay or to some extent inhibit the premature ageing phenotype.
To obtain CSB/XPA double mutant mice the following crossing were done:
From these crossings CSB^−/−XPA^−/− mice were born with a frequency of 9%, whereas the expected Mendelian frequency is 25%.
The offspring were genotyped following normal procedures (tail clipping and genomic DNA analysis by Southern blot analysis or PCR amplification) and monitored for life span.

[5] = Serum mannitol concentration in CSB mice with osmotic pump; format: in vivo; settings: mouse, sc, subcutaneous osmotic pump (200 μl), read-out: Serum [mannitol] after 3 weeks
Procedure: The sample is further precipitated using acetonitrile and centrifuged. […] The organic layer is isolated and evaporated to dryness. The residue is dissolved in injection solvent and injected.
21 CSB animals, age 6 months, received an osmotic pump, 7×30 mm (volume 200 μl), subcutaneously implanted under the skin on the back, for continuous release of Phosphate Buffered Saline (control), 0.3M D-Mannitol or 0.03M D-Mannitol dissolved in Phosphate Buffered Saline, 7 animals per compound. To determine the actual D-Mannitol concentration in the blood of these animals, blood samples were taken every 7 days after the implantation of the osmotic pump. After three weeks, eyes were isolated from these animals and TUNEL staining was performed to determine the effect of D-Mannitol on diminishing the age-related photoreceptor-loss in CSB animals, Blood and urine samples were taken for measurements of D-mannitol levels and for determination of biomarkers. In a second experiment, the D-Mannitol treatment via osmotic pumps were repeated, but here on 8 week-old CSB mice were γ-irradiated, in order to see if D-mannitol can reduce the γ-induced photoreceptor-loss observed in CSB mice.

CSB mice [6] = assay: γ-irradiation induced photoreceptor loss in CSB mice, TUNEL staining of the retina; format: in vivo, mouse; settings: osmotic pump, 8 week-old CSB mice, γ-irradiated
Procedure: CSB mice have accelerated aging-related photoreceptor loss. […] The photoreceptor loss can also be induced in young adult CSB mice (8-10 weeks) with γ-irradiation (induces a.o. oxidative DNA damage). Since aging-related photoreceptor-loss is at least in part caused by unrepaired oxidative DNA damage, we are able to intervene with anti-oxidant or radical scavenger molecules, in particular with mannitol and/or proline. 21 CSB animals, age 6 months, received an osmotic pump, 7×30 mm (volume 200 μl), subcutaneously implanted under the skin on the back, for continuous release of Phosphate Buffered Saline (control), 0.3M D-Mannitol or 0.03M D-Mannitol dissolved in Phosphate Buffered Saline, 7 animals per compound. To determine the actual D-Mannitol concentration in the blood of these animals, blood samples were taken every 7 days after the implantation of the osmotic pump. After three weeks, eyes were isolated from these animals and TUNEL staining was performed to determine the effect of D-Mannitol on diminishing the age-related photoreceptor-loss in CSB animals, Blood and urine samples were taken for measurements of D-mannitol levels and for determination of biomarkers. […] For quantification, the number of TUNEL-positive cells in the inner nuclear layer (INL) and outer nuclear layer (ONL) were counted in 6 whole sections per mouse. […]

CSB mice [7] = assay: Age-related photoreceptor loss in CSB mice, TUNEL staining of the retina, without radiation; format: in vivo, mouse; settings: for Apoptotic index without radiation (number of TUNEL-positive cells): osmotic pump, 3 weeks, CSB mice age 6 months
Procedure: CSB mice have accelerated aging-related photoreceptor loss. […] The photoreceptor loss can also be induced in young adult CSB mice (8-10 weeks) with γ-irradiation (induces a.o. oxidative DNA damage). Since aging-related photoreceptor-loss is at least in part caused by unrepaired oxidative DNA damage, we are able to intervene with anti-oxidant or radical scavenger molecules, in particular with mannitol and/or proline. 21 CSB animals, age 6 months, received an osmotic pump, 7×30 mm (volume 200 μl), subcutaneously implanted under the skin on the back, for continuous release of Phosphate Buffered Saline (control), 0.3M D-Mannitol or 0.03M D-Mannitol dissolved in Phosphate Buffered Saline, 7 animals per compound. To determine the actual D-Mannitol concentration in the blood of these animals, blood samples were taken every 7 days after the implantation of the osmotic pump. After three weeks, eyes were isolated from these animals and TUNEL staining was performed to determine the effect of D-Mannitol on diminishing the age-related photoreceptor-loss in CSB animals, Blood and urine samples were taken for measurements of D-mannitol levels and for determination of biomarkers. In a second experiment, the D-Mannitol treatment via osmotic pumps were repeated, but here on 8 week-old CSB mice were γ-irradiated, in order to see if D-mannitol can reduce the γ-induced photoreceptor-loss observed in CSB mice. For retinal evaluation by TUNEL staining, eyes were marked nasally with Alcian blue (5% Alcian blue in 96% ethanol), enucleated, fixed in 4% paraformaldehyde in 0.1M phosphate buffer, washed in PBS and embedded in paraffin. Horizontal sections (5 μm thick) of the retina were cut and sections in the middle of the retina were selected by Alcian blue marking and proximity of the optic nerve. […] For quantification, the number of TUNEL-positive cells in the inner nuclear layer (INL) and outer nuclear layer (ONL) were counted in 6 whole sections per mouse.

[8] = 5% D-mannitol in PBS, osmotic pump in pregnant females

O=C(O)[C@@H]1CCCN1 [proline, L-Proline]
Elevated levels in blood of mothers and pups, in milk or in whole embryo's [1]: not detected
L-Proline levels in the blood [2]: no elevated levels
L-Proline levels in the urine [2]: High levels
AOC (anti-oxidant capacity) in vitro [3]: no or negligible
Clearance from the tissues and bloodstream of treated subjects [4]: rapidly cleared
Effectiveness of higher single dose administrations [4]: less or even ineffective
Frequency of survival of DKO pups after birth ([4]; proline treatment): equally effective in increasing the frequency of survival

vitamin E
Positive results as with mannitol and/or proline [4]: did not yield the positive results

OC[C@@H](O)[C@@H](O)[C@H](O)[C@H](O)CO [Mannitol, hexane-1,2,3,4,5,6-hexyl]
concentration at 3 weeks ([5]; 0.03 M (200 μl osmotic pump, continuous release), 0.03M D-Mannitol in PBS): 100 ± 30 ng/mL
concentration at 3 weeks ([5]; 0.3 M (200 μl osmotic pump, continuous release), 0.3M D-Mannitol in PBS): 650 ± 180 ng/mL
AOC (anti-oxidant capacity) in vitro [3]: no or negligible
Apoptotic index after radiation (number of TUNEL-positive cells) (CSB mice [6]; 0.03M D-Mannitol): 29.5 ± 6.0
Apoptotic index after radiation (number of TUNEL-positive cells) (CSB mice [6]; 0.3M D-Mannitol): 28.9 ± 11.3
Apoptotic index without radiation (number of TUNEL-positive cells) (CSB mice [7]; 0.03M D-Mannitol): 24.1 ± 6.8
Apoptotic index without radiation (number of TUNEL-positive cells) (CSB mice [7]; 0.3M D-Mannitol): 24.8 ± 6.0
Change of the apoptotic index (photoreceptor loss) (CSB mice [7]; endogenous or exogenous (radiation induced) oxidative stress, CSB mice): significant decrease
Frequency of birth and survival after birth of XPA/CSB double KO mice ([4]; 2% D-Mannitol administered to drinking water): Comparable results
Frequency of birth of XPA/CSB double KO mice [4, 8]: increase in frequency of birth
Survival after birth (life span) of XPA/CSB double KO mice [4, 8]: increase in survival after birth
Clearance from the tissues and bloodstream of treated subjects [4]: rapidly cleared
Effectiveness of higher single dose administrations [4]: less or even ineffective

O=C1O[C@H]([C@@H](O)CO)C(O)=C1O [vitamin C]
Positive results as with mannitol and/or proline [4]: did not yield the positive results

Source: patent US20120045483A1, “Mannitol and/or Proline for Prevention and Treatment of Ageing Related Symptoms” (ERASMUS MC, priority 2006, published 2012)
